Measurements published in US11628169B2, “Therapeutic drug for motor complications in Parkinson's disease” (Sumitomo Pharma Co., Ltd., priority 2020, dated 2023).

Experiment: Plasma tandospirone concentration after observation of behavior in PD-LID rats
Assay type: in vivo, rat
Conditions: continuous subcutaneous infusion 60 mg/mL (mean 0.78 mg/kg/hour as citrate)
Experimental: 50 μL of rat plasma sample was fractionated into a polypropylene microtube. 50 μL of methanol (50 μL of standard solution for calibration curve sample) and 200 μL of internal standard solution (Bezafibrate methanol solution: 200 nmol/L, 200 μL of methanol for blank sample) are added and stirred for about 10 seconds with a mixer. This is centrifuged (4° C., 4500 rpm, 10 min), and then the supernatant is subjected to vacuum filtration using a filter (FastRemover MF 0.2 μm). 70 μL of aqueous 10 mmol/L ammonium acetate solution is added to 70 μL of the resulting filtrate and stirred for about 10 seconds with a mixer to prepare a measurement sample.
When evaluating a tape agent, the hair on the abdominal region of rats was shaved before the evaluation date. The tape agent of formulation 2 was applied to the abdominal regions of rats on the evaluation date at 60 cm^2/kg (37 mg/kg). After 4 hours from application, a levodopa containing solution was intraperitoneally administered to observe and evaluate the behavior. Individuals with 50% or more of the tape agent coming off during the test were excluded from analysis. […]
After 4 hours, a levodopa containing solution was administered to observe and evaluate the behavior (day 0 of implanting the pump). […] The behavior was also observed and evaluated on day 13 of implanting the pump.

tandospirone citrate
mean value of the plasma tandospirone concentrations (value converted in terms of free form) (day 0 of implanting the pump): 281 ng/mL | mean value of the plasma tandospirone concentrations (value converted in terms of free form) (day 13 of implanting the pump): 143 ng/mL
